Data from patent US20260325561A1, “4'-SUBSTITUTED NUCLEOSIDES AND NUCLEOTIDES AS ANTIVIRAL AGENTS” (THE SCRIPPS RESEARCH INSTITUTE, priority 2023, published 2026).

Columns and labels:
[1] = system: RSV A2; assay: microbe, parasite or virus in culture; assay type: cell-based; details: human respiratory syncytial virus, HEp-2, 72 h, read-out: RSV A2 / Hep2 EC50
[2] = in vitro; details: human, hela-ace2 cells
[3] = in vitro; details: human, hep2 cells
[4] = in vitro; details: human, hepg2 cells
[5] = system: HRV 16; assay: microbe, parasite or virus in culture; assay type: cell-based, Human Rhinovirus 16 strain 11757; details: Rhinovirus A, H1-HeLa, 48 h, read-out: HRV / H1 HeLa A16 EC50
[6] = system: HRV 14; assay: microbe, parasite or virus in culture; assay type: cell-based, Human Rhinovirus 14 strain 1059; details: Rhinovirus B, H1-HeLa, 48 h, read-out: HRV / H1 HeLa B 14 EC50
[7] = in vitro; details: human, h1 hela cells
[8] = system: DENV-2; assay: microbe, parasite or virus in culture; assay type: cell-based, DENV-2 16681; details: Dengue virus, DENV2, HepG2, 24 h, read-out: DENV-2 / HepG2 EC50
[9] = system: SARS-CoV-2; assay: microbe, parasite or virus in culture; assay type: cell-based, SARS-CoV-2 strain USA-WA1/2020; details: Severe acute respiratory syndrome coronavirus 2, HeLa-ACE2, 24 h, read-out: SARS-CoV-2 / HeLa-ACE2 EC50

| SMILES | EC50 [1] [µM] | CC50 at 24 h [2] [µM] | CC50 [3] [µM] | CC50 at 72 h [4] [µM] | EC50 [5] [µM] | EC50 [6] [µM] | CC50 [7] [µM] | EC50 [8] [µM] | EC50 [9] [µM] |
| --- | --- | --- | --- | --- | --- | --- | --- | --- | --- |
| C[C@]1(O)[C@H](n2ccc3c(N)ncnc32)O[C@](F)(CO)[C@H]1O [Example 10, (2S,3S,4R,5R)-5-(4-amino-7H-pyrrolo[2,3-d]pyrimidin-7-yl)-2-fluoro-2-(hydroxymethyl)-4-methyltetrahydrofuran-3,4-diol] | > 10 | > 99 | > 99 | > 99 | > 10 | > 10 | > 99 | > 10 | > 10 |
| C#Cc1nc(N)c2ncn([C@@H]3O[C@](F)(CO)[C@@H](O)[C@H]3O)c2n1 [Example 18, (2S,3S,4R,5R)-5-(6-amino-2-ethynyl-9H-purin-9-yl)-2-fluoro-2-(hydroxymethyl)tetrahydrofuran-3,4-diol] | > 10 | > 99 | > 99 | > 99 | > 10 | > 10 | > 99 | > 10 | > 10 |
| OC[C@@]1(F)O[C@@H](n2ccc3cncnc32)[C@H](O)[C@@H]1O [Example 23, (2S,3S,4R,5R)-2-fluoro-2-(hydroxymethyl)-5-(7H-pyrrolo[2,3-d]pyrimidin-7-yl)tetrahydrofuran-3,4-diol] | 1 to 10 | 1 to 10 | 10 to 99 | 1 to 10 | 1 to 10 | 1 to 10 | 10 to 99 | 0.1 to 1 | 1 to 10 |
| N#Cc1cn([C@@H]2O[C@](F)(CO)[C@@H](O)[C@H]2O)c2ncnc(N)c12 [Example 26, 4-amino-7-((2R,3R,4S,5S)-5-fluoro-3,4-dihydroxy-5-(hydroxymethyl)tetrahydrofuran-2-yl)-7H-pyrrolo[2,3-d]pyrimidine-5-carbonitrile] | < 0.1 | < 1 | < 1 | < 1 | > 10 | > 10 | 1 to 10 | < 0.1 | 0.1 to 1 |
| Nc1nc(Cl)c2ccn([C@@H]3O[C@](F)(CO)[C@@H](O)[C@H]3O)c2n1 [Example 27, (2S,3S,4R,5R)-5-(2-amino-4-chloro-7H-pyrrolo[2,3-d]pyrimidin-7-yl)-2-fluoro-2-(hydroxymethyl)tetrahydrofuran-3,4-diol] | > 10 | 10 to 99 | 10 to 99 | 10 to 99 | > 10 | > 10 | 10 to 99 | > 10 | > 10 |
| Cc1nc(Cl)c2ccn([C@@H]3O[C@](F)(CO)[C@@H](O)[C@H]3O)c2n1 [Example 29, (2S,3S,4R,5R)-5-(4-chloro-2-methyl-7H-pyrrolo[2,3-d]pyrimidin-7-yl)-2-fluoro-2-(hydroxymethyl)tetrahydrofuran-3,4-diol] | > 10 | > 99 | – | > 99 | > 10 | > 10 | > 99 | > 10 | > 10 |
| NC(=O)c1cc([C@@H]2O[C@](F)(COC(=O)c3ccccc3)[C@@H](O)[C@H]2O)n2ncnc(N)c12 [Example 34, ((2S,3S,4R,5S)-5-(4-amino-5-carbamoylpyrrolo[2,1-f][1,2,4]triazin-7-yl)-2-fluoro-3,4-dihydroxytetrahydrofuran-2-yl)methyl benzoate] | 0.1 to 1 | 1 to 10 | < 1 | < 1 | > 10 | > 10 | 1 to 10 | 1 to 10 | > 10 |
| COc1ncnc2c1ccn2[C@@H]1O[C@](F)(CO)[C@@H](O)[C@H]1O [Example 41, (2S,3S,4R,5R)-2-fluoro-2-(hydroxymethyl)-5-(4-methoxy-7H-pyrrolo[2,3-d]pyrimidin-7-yl)tetrahydrofuran-3,4-diol] | > 10 | 10 to 99 | 10 to 99 | 10 to 99 | > 10 | > 10 | 10 to 99 | > 10 | > 10 |
| Nc1nc(Cl)nc2c1ncn2[C@@H]1O[C@](F)(CO)[C@@H](O)[C@H]1O [Example 43, (2S,3S,4R,5R)-5-(6-amino-2-chloro-9H-purin-9-yl)-2-fluoro-2-(hydroxymethyl)tetrahydrofuran-3,4-diol] | > 10 | > 99 | > 99 | 10 to 99 | > 10 | > 10 | 10 to 99 | > 10 | > 10 |
| CC(C)OC(=O)[C@H](C)N[P@@](=O)(OC[C@@]1(F)O[C@@H](n2ccc3c(N)ncnc32)[C@H](O)[C@@H]1O)Oc1ccccc1 [Example 49, isopropyl ((R)-(((2S,3S,4R,5R)-5-(4-amino-7H-pyrrolo[2,3-d]pyrimidin-7-yl)-2-fluoro-3,4-dihydroxytetrahydrofuran-2-yl)methoxy)(phenoxy)phosphoryl)-L-alaninate] | – | > 99 | – | > 99 | > 10 | 1 to 10 | > 99 | 1 to 10 | > 10 |
| C[C@]1(Cl)[C@H](n2cnc3c(=O)[nH]c(N)nc32)O[C@](F)(CO)[C@H]1O [Example 62, 2-amino-9-((2R,3R,4R,5S)-3-chloro-5-fluoro-4-hydroxy-5-(hydroxymethyl)-3-methyltetrahydrofuran-2-yl)-1,9-dihydro-6H-purin-6-one] | > 10 | > 99 | 10 to 99 | 10 to 99 | – | > 10 | 10 to 99 | 0.1 to 1 | > 10 |
| CCOc1nc(N)nc2c1ncn2[C@@H]1O[C@](F)(COP(=O)(N[C@@H](C)C(=O)OC(C)C)Oc2ccccc2)[C@@H](O)[C@@]1(C)Cl (stereo partly drawn) [Example 64, isopropyl ((((2S,3R,4R,5R)-5-(2-amino-6-ethoxy-9H-purin-9-yl)-4-chloro-2-fluoro-3-hydroxy-4-methyltetrahydrofuran-2-yl)methoxy)(phenoxy)phosphoryl)-L-alaninate] | > 10 | 10 to 99 | 10 to 99 | 10 to 99 | – | > 10 | 10 to 99 | 1 to 10 | > 10 |
| C[C@H](NP(=O)(OC[C@@]1(F)O[C@@](C#N)(c2cnc3c(N)ncnn23)[C@H](O)[C@@H]1O)Oc1cccc2ccccc12)C(=O)OCC(C)(C)C (stereo partly drawn) [Example 65, neopentyl ((((2S,3S,4R,5R)-5-(4-aminoimidazo[2,1-f][1,2,4]triazin-7-yl)-5-cyano-2-fluoro-3,4-dihydroxytetrahydrofuran-2-yl)methoxy)(naphthalen-1-yloxy)phosphoryl)-L-alaninate] | > 10 | 10 to 99 | 10 to 99 | 1 to 10 | – | > 10 | 10 to 99 | 1 to 10 | 1 to 10 |
| CCOc1nc(N)nc2c1ncn2[C@@H]1O[C@](F)(CO[P@@](=O)(N[C@@H](C)C(=O)OC(C)C)Oc2ccccc2)[C@@H](O)[C@]1(F)Cl [Example 67, isopropyl ((((2S,3R,4S,5R)-5-(2-amino-6-ethoxy-9H-purin-9-yl)-4-chloro-2,4-difluoro-3-hydroxytetrahydrofuran-2-yl)methoxy)(phenoxy)phosphoryl)-L-alaninate] | > 10 | 10 to 99 | 10 to 99 | 10 to 99 | – | 1 to 10 | 10 to 99 | 1 to 10 | > 10 |
| CCOc1nc(N)nc2c1ncn2[C@@H]1O[C@](F)(CO)[C@@H](O)[C@]1(F)Br [Example 68, (2S,3R,4S,5R)-5-(2-amino-6-ethoxy-9H-purin-9-yl)-4-bromo-2,4-difluoro-2-(hydroxymethyl)tetrahydrofuran-3-ol] | > 10 | > 99 | 10 to 99 | 10 to 99 | – | > 10 | 10 to 99 | > 10 | > 10 |
| C#C[C@]1(O)[C@H](n2ccc3c(NCCC)ncnc32)O[C@](F)(CO)[C@H]1O [Example 70, (2S,3S,4R,5R)-4-ethynyl-2-fluoro-2-(hydroxymethyl)-5-(4-(propylamino)-7H-pyrrolo[2,3-d]pyrimidin-7-yl)tetrahydrofuran-3,4-diol] | > 10 | > 99 | 10 to 99 | 10 to 99 | – | > 10 | 10 to 99 | > 10 | > 10 |
| CSc1ncnc2c1ccn2[C@@H]1O[C@](F)(CO)[C@@H](O)[C@H]1O [Example 72, (2S,3S,4R,5R)-2-fluoro-2-(hydroxymethyl)-5-(4-(methylthio)-7H-pyrrolo[2,3-d]pyrimidin-7-yl)tetrahydrofuran-3,4-diol] | > 10 | 10 to 99 | 10 to 99 | 10 to 99 | – | > 10 | > 99 | 1 to 10 | 1 to 10 |
